Activity calls are given as the source filed them. The calls are words filed in the database; no cut-off is given here.
Columns and labels:
Leishmania infantum [1] = test: Antileishmanial activity against Leishmania infantum (MHOM/TN/80/IPTI) promastigotes assessed as reduction in parasite viability measured after 72 hrs by MTT assay; format: functional, organism-based; details: MHOM/TN/80/IPT
Plasmodium falciparum [2] = test: Antimalarial activity against chloroquine sensitive Plasmodium falciparum D10 infected in human red blood cells assessed as reduction in parasite growth measured after 72 hrs by parasite lactate dehydrogenase assay; format: functional, organism-based; details: D10, 72 h
Plasmodium falciparum [3] = test: Antimalarial activity against chloroquine resistant Plasmodium falciparum W2 infected in human red blood cells assessed as reduction in parasite growth measured after 72 hrs by parasite lactate dehydrogenase assay; format: functional, organism-based; details: W2, 72 h
Leishmania tropica [4] = test: Antileishmanial activity against Leishmania tropica (MHOM/SY/2012/ISS3130) promastigotes assessed as reduction in parasite viability measured after 72 hrs by MTT assay; format: functional, organism-based; details: MHOM/SY/2012/ISS3130, 72 h
Leishmania infantum [5] = test: Antileishmanial activity against Leishmania infantum (MHOM/TN/80/IPTI) promastigotes assessed as reduction in parasite viability at 60 uM measured after 72 hrs by MTT assay; format: functional, organism-based; details: MHOM/TN/80/IPT
Plasmodium falciparum [6] = test: Antimalarial activity against […] late stage (IV-V) Plasmodium falciparum 3D7 gametocytes expressing CBG99 luciferase infected in human red blood cells assessed as reduction in gametocyte viability measured after 72 hrs by luminescence based assay; format: functional, organism-based; details: 3D7, 72 h
BMDM = test: Cytotoxicity against mouse BMDM cells assessed as reduction in cell viability incubated for 72 hrs by MTT assay; format: cell-based
[7] = Selectivity index, ratio of IC50 for antimalarial activity against chloroquine sensitive Plasmodium falciparum D10 infected in human red blood cells to IC50 for cytotoxicity against mouse BMDM cells; format: toxicity, cell-based; details: read-out: Selectivity Index
[8] = Selectivity index, ratio of IC50 for antimalarial activity against chloroquine resistance Plasmodium falciparum W2 infected in human red blood cells to IC50 for Cytotoxicity against mouse BMDM cells; format: toxicity, cell-based; details: read-out: Selectivity Index
[9] = Selectivity index, ratio of IC50 for antileishmanial activity against Leishmania infantum (MHOM/TN/80/IPTI) promastigotes to IC50 for Cytotoxicity against mouse BMDM cells; format: toxicity, cell-based; details: read-out: Selectivity Index
[10] = Selectivity index, ratio of IC50 for antileishmanial activity against Leishmania tropica (MHOM/SY/2012/ISS3130) promastigotes to IC50 for Cytotoxicity against mouse BMDM cells; format: toxicity, cell-based; details: read-out: Selectivity Index
Leishmania tropica [11] = test: Antileishmanial activity against Leishmania tropica (MHOM/SY/2012/ISS3130) promastigotes assessed as reduction in parasite viability at 60 uM measured after 72 hrs by MTT assay; format: functional, organism-based
Plasmodium falciparum [12] = test: Antimalarial activity against chloroquine sensitive Plasmodium falciparum D10 infected in human red blood cells assessed as reduction in parasite growth at 60 uM measured after 72 hrs by parasite lactate dehydrogenase assay; format: functional, organism-based
Plasmodium falciparum [13] = test: Antimalarial activity against chloroquine resistant Plasmodium falciparum W2 infected in human red blood cells assessed as reduction in parasite growth at 60 uM measured after 72 hrs by parasite lactate dehydrogenase assay; format: functional, organism-based

SMILES	IC50 (Leishmania infantum [1]) [µM]	IC50 (Plasmodium falciparum [2]) [µM]	IC50 (Plasmodium falciparum [3]) [µM]	IC50 (Leishmania tropica [4]) [µM]	further results
C[C@@H]1[C@H](O)[C@@H](C)/C=C/C=C/C=C/C=C/C=C/C=C/C=C/[C@H](O[C@@H]2O[C@H](C)[C@@H](O)[C@H](N)[C@@H]2O)C[C@@H]2O[C@](O)(C[C@@H](O)C[C@@H](O)[C@H](O)CC[C@@H](O)C[C@@H](O)CC(=O)O[C@H]1C)C[C@H](O)[C@H]2C(=O)O [AMPHOTERICIN B]	0.11	–	–	–	–
BrC1=NOC(c2ncc(-c3ccccc3)o2)C1 (stereo not given)	–	32.2	39.3	50.7	inhibition (Leishmania infantum [5]): inactive
Oc1ccc(-c2noc(C3CC(Br)=NO3)n2)cc1 (stereo not given)	14.7	39	32.5	25.6	–
BrC1=NOC(c2nc(-c3ccsc3)no2)C1 (stereo not given)	27.3	58.3	48.1	32.6	–
CC(C)(C)c1ccc(-c2nnc(C3CC(Br)=NO3)o2)cc1 (stereo not given)	3.5	0.035	0.058	7.5	IC50 (Plasmodium falciparum [6]): 10.4 µM; IC50 (BMDM): 40 µM; selectivity ratio [7]: 1140; selectivity ratio [8]: 690; selectivity ratio [9]: 11; selectivity ratio [10]: 5
BrC1=NOC(c2nc(-c3ccc4c(c3)OCCO4)no2)C1 (stereo not given)	25.6	29.8	32.7	39.4	–
O=C(O)c1ccc(-c2noc(C3CC(Br)=NO3)n2)cc1 (stereo not given)	–	36.9	45.3	–	inhibition (Leishmania infantum [5]): inactive; inhibition (Leishmania tropica [11]): inactive
BrC1=NOC(c2nnc(-c3ccccc3)o2)C1 (stereo not given)	–	16.7	15.1	–	inhibition (Leishmania infantum [5]): inactive; inhibition (Leishmania tropica [11]): inactive
O=C(O)c1ccc(-c2noc(C3CC(Br)=NO3)n2)s1 (stereo not given)	–	45.9	40.4	–	inhibition (Leishmania infantum [5]): inactive; inhibition (Leishmania tropica [11]): inactive
COc1ccc(-c2noc(C3CC(Br)=NO3)n2)cc1 (stereo not given)	12	34.4	42.5	14.7	–
CC(C)(C)c1ccc(-c2noc(C3CC(Br)=NO3)n2)cc1 (stereo not given)	0.29	3.1	3.5	0.31	IC50 (BMDM): 37.3 µM; selectivity ratio [7]: 12; selectivity ratio [8]: 11; selectivity ratio [9]: 129; selectivity ratio [10]: 120
BrC1=NOC(c2nc(-c3ccccc3)cs2)C1 (stereo not given)	28.8	45.8	39.7	33.8	–
Nc1ccc(-c2noc(C3CC(Br)=NO3)n2)cc1 (stereo not given)	28.8	45.7	39.5	33.8	–
N[C@H](c1nc(-c2ccccc2)no1)[C@@H]1CC(Br)=NO1	–	–	–	–	inhibition (Plasmodium falciparum [12]): inactive; inhibition (Plasmodium falciparum [13]): inactive
FC(F)(F)c1ccc(-c2noc(C3CC(Br)=NO3)n2)cc1 (stereo not given)	8.7	31	34	6.9	–
BrC1=NOC(c2nc(-c3ccc4ccccc4c3)no2)C1 (stereo not given)	10.5	27.8	27.2	5.3	–
BrC1=NOC(c2nc(-c3ccccc3)no2)C1 (stereo not given)	17.3	52.7	64.8	43	–
BrC1=NOC(c2nnc(-c3ccccc3)s2)C1 (stereo not given)	60.3	22.9	41.3	–	inhibition (Leishmania tropica [11]): inactive
BrC1=NOC(c2nc(-c3cccs3)no2)C1 (stereo not given)	26.2	52.7	46	24.9	–
Fc1ccc(-c2noc(C3CC(Br)=NO3)n2)cc1 (stereo not given)	9	–	–	10.9	inhibition (Plasmodium falciparum [12]): inactive; inhibition (Plasmodium falciparum [13]): inactive
BrC1=NOC(c2nc(-c3ccccc3)n[nH]2)C1 (stereo not given)	–	35.3	43	–	inhibition (Leishmania infantum [5]): inactive; inhibition (Leishmania tropica [11]): inactive
